Experimental findings from patent publication US5856517A, “Substituted pyrroles” (Hoffmann-La Roche Inc., priority 1997, dated 1999) are described below.

For assay [1], the system named is epithelial breast carcinoma cell line MDAMB-435. Kind of assay: Antiproliferative activity, growth of MDAMB-435 cells (MTT). It counts as cell-based. Conditions: Homo sapiens, MDA-MB-435, 120 h, MDAMB435, day 5 post-drug addition, 0.1% DMSO, * = average of two separate experiments. The procedure:
(§1) The epithelial breast carcinoma cell line, MDAMB-435, and the colon carcinoma cell line, SW480, were purchased from ATCC (American Type Cell Culture Collection) and were grown in culture in medium as recommended by ATCC. For analysis of the effect of various compounds on growth of these cells, the cells were plated at a concentration of 1500 cells/well in a 96 well tissue culture plate ("test plate"). The day after the cells were plated, the compounds to be analyzed were dissolved in 100% DMSO (dimethyl sulfoxide) to yield at 10 mM stock solution. Each compound was diluted in H2 O to 1 mM and was added to triplicate wells in the first row of a 96 well master plate which contains medium to yield a final concentration of 40 μM. The compounds were then serially diluted in medium in the "master plate". The diluted compound(s) were then transferred to test plates containing cells. A row of vehicle "control cells" received DMSO. The final concentration of DMSO in each well was 0.1%. At day 5 post-drug addition, the plates containing MDA-MB435 cells were analyzed as follows. Plates containing SW480 cells were analyzed at day 7 post drug addition as follows.
(§2) MTT (3-(4-5methylthiazole-2-yl)-2,5-diphenyl tetrazolium bromide; thiazolyl blue) was added to each well to yield a final concentration of 1 mg/ml. The plate was then incubated at 37° C. for 21/2-3 hours. The MTT containing medium was then removed and 50 μl of 100% ethanol was added to each well to dissolve the formazan. The absorbences were then read using an automated plate reader (Bio-tek microplate reader). IC50 's were calculated using the Reed and Munsch equation, see Am. J. Hygiene Vol. 27 pgs. 493-497, 1938.

Assay [2] deals with colon carcinoma cell line SW480. Kind of assay: Antiproliferative activity, growth of SW480 cells (MTT). The note with it: Homo sapiens, 168 h, day 7 post drug addition, 0.1% DMSO, * = average of two separate experiments. It counts as cell-based. The procedure:
as §1, §2

Turning to `CC(=O)OCc1ccc2c(C3=C(c4cn(C)c5ccccc45)C(=O)NC3=O)cn(C)c2c1` [Ex 3, Acetic acid 1-methyl-3-[4-(1-methyl-1H-indol-3-yl)-2,5-dioxo-2,5-dihydro-1H-pyrrol-3-yl]-1H-indol-6-yl methyl ester], the IC50 in assay [1] stood at 300 nM; in assay [2] it was 830 nM.

`COCc1ccc2c(C3=C(c4cn(C)c5ccccc45)C(=O)NC3=O)cn(C)c2c1` [Ex 4c, 3-(6-Methoxymethyl-1-methyl-1H-indol-3-yl)-4-(1-methyl-1H-indol-3-yl)-pyrrole-2,5-dione]: the figures for the IC50 in assay [1] and in assay [2] were 70 nM and 110 nM, respectively.

As for `Cn1cc(C2=C(c3cn(C)c4cc(C#N)ccc34)C(=O)NC2=O)c2ccccc21` [Ex 1, 1-methyl-3-[4-(1-methyl-1H-indol-3-yl)-2,5-dioxo-2,5-dihydro-1H-pyrrol-3-yl]-1H-indole-6-carbonitrile], the IC50 in assay [1] was 30 nM; in assay [2], 8 nM.

On to `Cn1cc(C2=C(c3cn(C)c4cc(C(N)=O)ccc34)C(=O)NC2=O)c2ccccc21` [Ex 6, 1-Methyl-3-[4-(1-methyl-1H-indol-3-yl)-2,5-dioxo-2,5-dihydro-1H-pyrrol-3-yl]-1H-indole-6-carboxylic acid amide], for which the midpoint of inhibition in assay [1], the IC50, lay at 700 nM.

Regarding `Cn1cc(C2=C(c3cn(C)c4cc(CO)ccc34)C(=O)NC2=O)c2ccccc21` [Ex 5, 3-(6-hydroxymethyl-1-methyl-1H-indol-3-yl)-4-(1-methyl-1H-indol-3-yl)pyrrole-2,5-dione], the results for the IC50 in assay [1] and in assay [2] were 420 nM and 350 nM, respectively.

Consider `COC(=O)c1ccc2c(C3=C(c4cn(C)c5ccccc45)C(=O)NC3=O)cn(C)c2c1` [Ex 4a, 1-methyl-3-[4-(1-methyl-1H-indol-3-yl)-2,5-dioxo-2,5-dihydro-1H-pyrrol-3-yl]-1H-indole-6-carboxylic acid methyl ester], for which the IC50 in assay [1] and in assay [2] was 10 nM in each case.

Consider `Cn1cc(C2=C(c3cn(C)c4cc(C=O)ccc34)C(=O)NC2=O)c2ccccc21` [Ex 4b, 1-methyl-3-[4-(1-methyl-1H-indol-3-yl)-2,5-dioxo-2,5-dihydro-1H-pyrrol-3-yl]-1H-indole-6-carboxaldehyde], for which the figures for the IC50 in assay [1] and in assay [2] were 32 nM and 54 nM, respectively.

Usually IC50 stands for the concentration needed to halve the response being measured.
